Test results: patent US9920032B2, “Heterocyclic compounds useful as pim kinase inhibitors” (Incyte Corporation, priority 2015, dated 2018)
pIC50: −log10 of the molar value.

Experiments:
Type in all cases: biochemical
Pim-1 = Pim-1 (Homo sapiens (Human), UniProt P11309); assay: Pim-1 kinase assay; conditions: 1 mM ATP; read-out: PIM1 IC50
Method: (§1) Pim-1 and Pim-3 kinase assays—20 μL reactions were run in white 384 well polystyrene plates dotted with 0.8 μL compound/DMSO in the assay buffer (50 mM Tris, pH 7.5, 0.01% Tween-20, 5 mM mgCl2, 0.01% BSA, 5 mM DTT), containing 0.05 μM Biotin-labeled BAD peptide substrate (AnaSpec 62269), 1 mM ATP, and 2.5 pM (Pim-1, Invitrogen PV3503) or 1.25 pM (Pim-3, Millipore 14-738) enzyme for 1 h at 25° C. Reactions were stopped by addition of 10 μL STOP Buffer (150 mM Tris, pH=7.5, 150 mM NaCl, 75 mM EDTA, 0.01% Tween-20, 0.3% BSA,) supplemented with Phospho-Bad (Ser112) Antibody (Cell Signaling 9291) diluted 666-fold, and Streptavidin donor beads (PerkinElmer 6760002) along with Protein-A acceptor beads (PerkinElmer 6760137) at […]. Supplementation of the STOP buffer with beads and stopping the reactions were done under reduced light. Prior to the stopping reactions STOP buffer with beads was preincubated for 1 h in the dark at room temperature. After stopping the reactions, plates were incubated for 1 h in the dark at room temperature before reading on a PHERAstar FS plate reader (BMG Labtech) under reduced light.

Pim-2 = Pim-2 (Homo sapiens (Human), UniProt Q9P1W9); assay: Pim-2 kinase assay; conditions: 1 mM ATP; read-out: PIM2 IC50
Chain of Pim-2 (Q9P1W9 whole entry): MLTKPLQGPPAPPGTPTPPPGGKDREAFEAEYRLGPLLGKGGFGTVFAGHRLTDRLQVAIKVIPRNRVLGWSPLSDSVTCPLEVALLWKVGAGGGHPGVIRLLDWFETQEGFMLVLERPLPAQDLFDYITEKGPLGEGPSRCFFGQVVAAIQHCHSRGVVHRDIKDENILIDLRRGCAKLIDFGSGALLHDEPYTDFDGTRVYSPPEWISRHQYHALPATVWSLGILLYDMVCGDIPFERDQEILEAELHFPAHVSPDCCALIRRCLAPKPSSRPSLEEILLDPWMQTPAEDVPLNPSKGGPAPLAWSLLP
Method: Pim-2 kinase assay—20 μL reactions were run in white 384 well polystyrene plates dotted with 0.8 μL compound/DMSO in the assay buffer (50 mM Tris, pH 7.5, 0.01% Tween-20, 5 mM mgCl2, 0.01% BSA, 5 mM DTT), containing 0.05 μM Fluorescein-labeled CREBtide peptide substrate (Invitrogen PV3508), 1 mM ATP, and 1 nM enzyme (Invitrogen PV3649) for 2 h at 25° C. Reactions were stopped by addition of 10 μL TR-FRET Dilution Buffer (Invitrogen PV3574) with 30 mM EDTA and 1.5 nM LanthaScreen Tb-CREB pSer133 antibody (Invitrogen PV3566). After 30 min. incubation at room temperature, plates were read on a PHERAstar FS plate reader (BMG Labtech).

Pim-3 = Pim-3 (Homo sapiens (Human), UniProt Q86V86); assay: Pim-3 kinase assay; conditions: 1 mM ATP; read-out: PIM3 IC50
Method: as §1

Chain of Pim-1 (P11309 whole entry): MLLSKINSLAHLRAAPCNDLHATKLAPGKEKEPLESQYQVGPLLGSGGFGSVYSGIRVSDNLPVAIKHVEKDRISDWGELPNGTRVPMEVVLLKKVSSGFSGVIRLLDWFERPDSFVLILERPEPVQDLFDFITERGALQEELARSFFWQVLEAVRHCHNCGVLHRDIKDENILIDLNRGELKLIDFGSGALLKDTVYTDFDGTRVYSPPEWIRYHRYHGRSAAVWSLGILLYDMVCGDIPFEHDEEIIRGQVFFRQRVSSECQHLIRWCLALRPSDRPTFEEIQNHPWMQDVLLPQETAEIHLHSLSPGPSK

COC1CCCN(c2cnc3c(C(=O)Nc4cnccc4[C@@H]4C[C@H](C)C[C@H](N)C4)ccc(F)c3c2)C1 (stereo in doubt) [Example 12, N-{4-[(1R,3S,5S)-3-Amino-5-methylcyclohexyl]pyridin-3-yl}-5-fluoro-3-[(3S)-3-methoxypiperidin-1-yl]quinoline-8-carboxamide] was tested, and the pIC50 (Pim-1) was ≥ 8.00, the pIC50 (Pim-2) was 6.00 to 7.00 and the pIC50 (Pim-3) was ≥ 8.00.
In the case of CCc1cnc2c(C(=O)Nc3cnccc3[C@@H]3C[C@H](C)C[C@H](N)C3)ccc(F)c2c1 [Example 1, N-{4-[(1R,3S,5S)-3-Amino-5-methylcyclohexyl]pyridin-3-yl}-3-ethyl-5-fluoroquinoline-8-carboxamide], the pIC50 (Pim-1) was ≥ 8.00, the pIC50 (Pim-2) was 6.00 to 7.00 and the pIC50 (Pim-3) was ≥ 8.00.
With C[C@@H]1C[C@H](N)C[C@H](c2ccncc2NC(=O)c2ccc(F)c3cc(N4CCC[C@@H](F)C4)cnc23)C1 [Example 2, N-{4-[(1R,3S,5S)-3-Amino-5-methylcyclohexyl]pyridin-3-yl}-5-fluoro-3-[(3,R)-3-fluoropiperidin-1-yl]quinoline-8-carboxamide] the pIC50 (Pim-1) was ≥ 8.00, the pIC50 (Pim-2) was ≥ 7.00 and the pIC50 (Pim-3) was ≥ 8.00.
For C[C@@H]1C[C@H](N)C[C@H](c2ccncc2NC(=O)c2ccc(F)c3cc(N4CCCC4)cnc23)C1 [Example 3, N-{4-[(1R,3S,5S)-3-Amino-5-methylcyclohexyl]pyridin-3-yl}-5-fluoro-3-pyrrolidin-1-ylquinoline-8-carboxamide], the pIC50 (Pim-1) was ≥ 8.00, the pIC50 (Pim-2) was 6.00 to 7.00 and the pIC50 (Pim-3) was 7.30 to 8.00.
For C[C@@H]1C[C@H](N)C[C@H](c2ccncc2NC(=O)c2ccc(F)c3cc(N4CCC4)cnc23)C1 [Example 4, N-{4-[(1R,3S,5S)-3-Amino-5-methylcyclohexyl]pyridin-3-yl}-3-azetidin-1-yl-5-fluoroquinoline-8-carboxamide], the pIC50 (Pim-1) was ≥ 8.00, the pIC50 (Pim-2) was 6.00 to 7.00 and the pIC50 (Pim-3) was 7.30 to 8.00.
In the case of C[C@@H]1C[C@H](N)C[C@H](c2ccncc2NC(=O)c2ccc(F)c3cc(N4CC[C@H](F)C4)cnc23)C1 [Example 5, N-{4-[(1R,3S,5S)-3-Amino-5-methylcyclohexyl]pyridin-3-yl}-5-fluoro-3-[(3S)-3-fluoropyrrolidin-1-yl]quinoline-8-carboxamide], the pIC50 (Pim-1) was ≥ 8.00, the pIC50 (Pim-2) was ≥ 7.00 and the pIC50 (Pim-3) was ≥ 8.00.
In the case of C[C@@H]1C[C@H](N)C[C@H](c2ccncc2NC(=O)c2ccc(F)c3cc(N4CC[C@@H](F)C4)cnc23)C1 [Example 6, N-{4-[(1R,3S,5S)-3-Amino-5-methylcyclohexyl]pyridin-3-yl}-5-fluoro-3-[(3R)-3-fluoropyrrolidin-1-yl]quinoline-8-carboxamide], the pIC50 (Pim-1) was ≥ 8.00, the pIC50 (Pim-2) was ≥ 7.00 and the pIC50 (Pim-3) was ≥ 8.00.
With C[C@@H]1C[C@H](N)C[C@H](c2ccncc2NC(=O)c2ccc(F)c3cc(N4CC[C@H](C#N)C4)cnc23)C1 [Example 7, N-{4-[(1R,3S,5S)-3-Amino-5-methylcyclohexyl]pyridin-3-yl}-3-[(3S)-3-cyanopyrrolidin-1-yl]-5-fluoroquinoline-8-carboxamide] the pIC50 (Pim-1) was ≥ 8.00, the pIC50 (Pim-2) was ≥ 7.00 and the pIC50 (Pim-3) was ≥ 8.00.
In the case of C[C@@H]1C[C@H](N)C[C@H](c2ccncc2NC(=O)c2ccc(F)c3cc(N4CC[C@@H](C#N)C4)cnc23)C1 [Example 8, N-{4-[(1R,3S,5S)-3-Amino-5-methylcyclohexyl]pyridin-3-yl}-3-[(3R)-3-cyanopyrrolidin-1-yl]-5-fluoroquinoline-8-carboxamide], the pIC50 (Pim-1) was ≥ 8.00, the pIC50 (Pim-2) was ≥ 7.00 and the pIC50 (Pim-3) was ≥ 8.00.
In the case of C[C@@H]1C[C@H](N)C[C@H](c2ccncc2NC(=O)c2ccc(F)c3cc(N4CC(F)C4)cnc23)C1 [Example 9, N-{4-[(1R,3S,5S)-3-Amino-5-methylcyclohexyl]pyridin-3-yl}-5-fluoro-3-(3-fluoroazetidin-1-yl)quinoline-8-carboxamide], the pIC50 (Pim-1) was ≥ 8.00, the pIC50 (Pim-2) was 6.00 to 7.00 and the pIC50 (Pim-3) was ≥ 8.00.
In the case of C[C@@H]1C[C@H](N)C[C@H](c2ccncc2NC(=O)c2ccc(F)c3cc(N4CCOCC4)cnc23)C1 [Example 10, N-{4-[(1R,3S,5S)-3-Amino-5-methylcyclohexyl]pyridin-3-yl}-5-fluoro-3-morpholin-4-ylquinoline-8-carboxamide], the pIC50 (Pim-1) was ≥ 8.00, the pIC50 (Pim-2) was 6.00 to 7.00 and the pIC50 (Pim-3) was ≥ 8.00.
CO[C@H]1CCCN(c2cnc3c(C(=O)Nc4cnccc4[C@@H]4C[C@H](C)C[C@H](N)C4)ccc(F)c3c2)C1 [Example 11, N-{4-[(1R,3S,5S)-3-Amino-5-methylcyclohexyl]pyridin-3-yl}-5-fluoro-3-[(38)-3-methoxypiperidin-1-yl]quinoline-8-carboxamide] was tested, and the pIC50 (Pim-1) was ≥ 8.00, the pIC50 (Pim-2) was 6.00 to 7.00 and the pIC50 (Pim-3) was ≥ 8.00.
C[C@@H]1C[C@H](N)C[C@H](c2ccncc2NC(=O)c2ccc(F)c3cc(C4CC4)cnc23)C1 [Example 13, N-{4-[(1R,3S,5S)-3-Amino-5-methylcyclohexyl]pyridin-3-yl}-3-cyclopropyl-5-fluoroquinoline-8-carboxamide] was tested, and the pIC50 (Pim-1) was ≥ 8.00, the pIC50 (Pim-2) was ≥ 7.00 and the pIC50 (Pim-3) was ≥ 8.00.
For C[C@@H]1C[C@H](N)C[C@H](c2ccncc2NC(=O)c2ccc(F)c3cc(C#CC4CC4)cnc23)C1 [Example 14, N-{4-[(1R,3S,5S)-3-Amino-5-methylcyclohexyl]pyridin-3-yl}-3-(cyclopropylethynyl)-5-fluoroquinoline-8-carboxamide], the pIC50 (Pim-1) was ≥ 8.00, the pIC50 (Pim-2) was 6.00 to 7.00 and the pIC50 (Pim-3) was ≥ 8.00.
C[C@@H]1C[C@H](N)C[C@H](c2ccncc2NC(=O)c2ccc(F)c3cc(-c4c(F)cccc4C#N)cnc23)C1 [Example 15, N-{4-[(1R,3S,5S)-3-Amino-5-methylcyclohexyl]pyridin-3-yl}-3-(2-cyano-6-fluorophenyl)-5-fluoroquinoline-8-carboxamide] was tested, and the pIC50 (Pim-1) was ≥ 8.00, the pIC50 (Pim-2) was ≥ 7.00 and the pIC50 (Pim-3) was ≥ 8.00.
For C[C@@H]1C[C@H](N)C[C@H](c2ccncc2NC(=O)c2ccc(F)c3cc(-c4ccccc4C#N)cnc23)C1 [Example 17, N-{4-[(1R,3S,5S)-3-Amino-5-methylcyclohexyl]pyridin-3-yl}-3-(2-cyanophenyl)-5-fluoroquinoline-8-carboxamide], the pIC50 (Pim-1) was ≥ 8.00, the pIC50 (Pim-2) was 6.00 to 7.00 and the pIC50 (Pim-3) was ≥ 8.00.
In the case of C[C@@H]1C[C@H](N)C[C@H](c2ccncc2NC(=O)c2ccc(F)c3cc(-c4c(F)cc(O)cc4F)cnc23)C1 [Example 18, N-{4-[(1R,3S,5S)-3-Amino-5-methylcyclohexyl]pyridin-3-yl}-3-(2,6-difluoro-4-hydroxyphenyl)-5-fluoroquinoline-8-carboxamide], the pIC50 (Pim-1) was ≥ 8.00, the pIC50 (Pim-2) was ≥ 7.00 and the pIC50 (Pim-3) was ≥ 8.00.
For C[C@@H]1C[C@H](N)C[C@H](c2ccncc2NC(=O)c2ccc(F)c3cc(N(C)CC4CC4)cnc23)C1 [Example 19, N-{4-[(1R,3S,5S)-3-Amino-5-methylcyclohexyl]pyridin-3-yl}-3-[(cyclopropylmethyl)(methyl)amino]-5-fluoroquinoline-8-carboxamide], the pIC50 (Pim-1) was ≥ 8.00, the pIC50 (Pim-2) was 6.00 to 7.00 and the pIC50 (Pim-3) was ≥ 8.00.
With CCN(C)c1cnc2c(C(=O)Nc3cnccc3[C@@H]3C[C@H](C)C[C@H](N)C3)ccc(F)c2c1 [Example 20, N-(4-((1R,3S,5S)-3-Amino-5-methylcyclohexyl)pyridin-3-yl)-3-(ethyl(methyl)amino)-5-fluoroquinoline-8-carboxamide] the pIC50 (Pim-1) was ≥ 8.00, the pIC50 (Pim-2) was ≥ 7.00 and the pIC50 (Pim-3) was ≥ 8.00.
In the case of C[C@@H]1C[C@H](N)C[C@H](c2ccncc2NC(=O)c2ccc(F)c3cc(N(C)CC(F)(F)F)cnc23)C1 [Example 21, N-{4-[(1R,3S,5S)-3-Amino-5-methylcyclohexyl]pyridin-3-yl}-5-fluoro-3-[methyl(2,2,2-trifluoroethyl)amino]quinoline-8-carboxamide], the pIC50 (Pim-1) was ≥ 8.00, the pIC50 (Pim-2) was ≥ 7.00 and the pIC50 (Pim-3) was ≥ 8.00.
In the case of C[C@@H]1C[C@H](N)C[C@H](c2ccncc2NC(=O)c2ccc(F)c3cc(N(C)CCF)cnc23)C1 [Example 22, N-{4-[(1R,3S,5S)-3-Amino-5-methylcyclohexyl]pyridin-3-yl}-5-fluoro-3-[(2-fluoroethyl)(methyl)amino]quinoline-8-carboxamide], the pIC50 (Pim-1) was ≥ 8.00, the pIC50 (Pim-2) was ≥ 7.00 and the pIC50 (Pim-3) was ≥ 8.00.
With C[C@@H]1C[C@H](N)C[C@H](c2ccncc2NC(=O)c2ccc(F)c3cc(N(C)C4CCOC4)cnc23)C1 (stereo partly drawn) [Example 23, N-{4-[(1R,3S,5S)-3-Amino-5-methylcyclohexyl]pyridin-3-yl}-5-fluoro-3-[methyl(tetrahydrofuran-3-yl)amino]quinoline-8-carboxamide] the pIC50 (Pim-1) was ≥ 8.00, the pIC50 (Pim-2) was 6.00 to 7.00 and the pIC50 (Pim-3) was ≥ 8.00.
